Measurements: ChEMBL document CHEMBL1133312, “S-nitrosothiols as novel, reversible inhibitors of human rhinovirus 3C protease” (Bioorg Med Chem Lett, 2000)
Square brackets hold non-standard residues; d marks the D form. Peptide text beside a SMILES is read from it. Cys(NO) = N[C@@H](CSN=O)C(=O)O

Columns and labels:
rhinovirus B14 [1] = test: Compound was evaluated for the inactivation of HRV 14 3C protease activity expressed as KI; assay type: functional, human rhinovirus type 14
rhinovirus B14 [2] = test: Compound was evaluated for the inactivation of HRV 14 3C protease activity expressed as kinact; assay type: functional, human rhinovirus type 14

Row | SMILES | Ki (rhinovirus B14 [1]) | K inact (rhinovirus B14 [2])
1 | CC(=O)N[C@@H](C(=O)O)C(C)(C)SN=O | 1860 µM | 0.243 min⁻¹
2 | CC(=O)N[C@@H](CCC(=O)O)C(=O)N[C@@H](C)C(=O)N[C@@H](CC(C)C)C(=O)N[C@@H](Cc1ccccc1)C(=O)N[C@@H](CCC(N)=O)C(=O)N[C@@H](CSN=O)C(=O)NCC(=O)O (Ac-EALFQ[Cys(NO)]G-OH) | 20 µM | 0.107 min⁻¹
3 | N[C@@H](CCC(=O)N[C@@H](CSN=O)C(=O)NCC(=O)O)C(=O)O [S-NITROSOGLUTATHIONE] | 360 µM | 0.237 min⁻¹
4 | CC(=O)N[C@@H](C(=O)NC1C(O)OC(CO)C(O)C1O)C(C)(C)SN=O (stereo not given in full) | 5040 µM | 0.982 min⁻¹
5 | C[C@@H](CSN=O)C(=O)N1CCC[C@H]1C(=O)O | 2110 µM | 0.457 min⁻¹
